Source: patent US10988458B2, “Apoptosis signal-regulating kinase 1 inhibitors and methods of use thereof” (Enanta Pharmaceuticals, Inc., priority 2017, dated 2021)

Biological target: ASK1 kinase (Homo sapiens (Human), UniProt Q99683)
Experiment: ASK1 kinase inhibition, HTRF KinEASE-STK TR-FRET assay
Assay type: biochemical
Conditions: 5 nM ASK1, 1 uM STK3 peptide substrate, 100 uM ATP, 3 hours
Procedure: The ability (IC50) of compounds to inhibit ASK1 kinase activity was determined by HTRF® KinEASE™ Assay System.
ASK1 was purchased from Thermofisher (Catalogue #PV4011), ATP was purchased from Sigma (Catalogue #A7699), HTRF® KinEASE™ Assay System was obtained from Cisbio (Bedford, Mass.). ½ Area plate was purchased from Perkin Elmer (Catalogue ##6005560). HTRF® KinEASE™-STK is a generic method for measuring serine/threonine kinase activities using a time-resolved fluorescence resonance energy transfer (TR-FRET) immunoassay. The IC50 value for each compound was determined in the presence of compound (various concentration from 0 to 10 μM) and a fixed amount of ATP and peptide substrates. The test compound, 1 uM STK3 peptide substrate, and 5 nM of ASK1 kinase are incubated with kinase reaction buffer containing 50 mM HEPES pH 7.5, 0.01% BRIJ-35, 10 mM MgCl2, and 1 mM EGTA for 30 minutes. 100 uM ATP is added to start kinase reaction and incubated for 3 hours. The STK3-antibody labeled with Eu^3+-Cryptate and 125 nM streptavidin-XL665 are mixed in a single addition with stop reagents provided by the Cisbio kit used to stop the kinase reaction. Fluorescence is detected using an Envision Multilabeled 2014 reader from PerkinElmer. The Fluorescence is measured at 615 nm (Cryptate) and 665 nm (XL665) and a ratio of 665 nm/615 nm is calculated for each well. The resulting TR-FRET is proportional to the phosphorylation level. Staurosporine was used as the positive control. IC50 was determined by XLfit 5.3.
By using above method, the inhibition of ASK1 was tested for the compound of formula (I). IC50 ranges are as follows: A<1 nM; 1 nM B<10 nM; 10 nM<C<100 nM; 100 nM<D<1 μM; […].

Chain of ASK1 kinase (Q99683 whole entry): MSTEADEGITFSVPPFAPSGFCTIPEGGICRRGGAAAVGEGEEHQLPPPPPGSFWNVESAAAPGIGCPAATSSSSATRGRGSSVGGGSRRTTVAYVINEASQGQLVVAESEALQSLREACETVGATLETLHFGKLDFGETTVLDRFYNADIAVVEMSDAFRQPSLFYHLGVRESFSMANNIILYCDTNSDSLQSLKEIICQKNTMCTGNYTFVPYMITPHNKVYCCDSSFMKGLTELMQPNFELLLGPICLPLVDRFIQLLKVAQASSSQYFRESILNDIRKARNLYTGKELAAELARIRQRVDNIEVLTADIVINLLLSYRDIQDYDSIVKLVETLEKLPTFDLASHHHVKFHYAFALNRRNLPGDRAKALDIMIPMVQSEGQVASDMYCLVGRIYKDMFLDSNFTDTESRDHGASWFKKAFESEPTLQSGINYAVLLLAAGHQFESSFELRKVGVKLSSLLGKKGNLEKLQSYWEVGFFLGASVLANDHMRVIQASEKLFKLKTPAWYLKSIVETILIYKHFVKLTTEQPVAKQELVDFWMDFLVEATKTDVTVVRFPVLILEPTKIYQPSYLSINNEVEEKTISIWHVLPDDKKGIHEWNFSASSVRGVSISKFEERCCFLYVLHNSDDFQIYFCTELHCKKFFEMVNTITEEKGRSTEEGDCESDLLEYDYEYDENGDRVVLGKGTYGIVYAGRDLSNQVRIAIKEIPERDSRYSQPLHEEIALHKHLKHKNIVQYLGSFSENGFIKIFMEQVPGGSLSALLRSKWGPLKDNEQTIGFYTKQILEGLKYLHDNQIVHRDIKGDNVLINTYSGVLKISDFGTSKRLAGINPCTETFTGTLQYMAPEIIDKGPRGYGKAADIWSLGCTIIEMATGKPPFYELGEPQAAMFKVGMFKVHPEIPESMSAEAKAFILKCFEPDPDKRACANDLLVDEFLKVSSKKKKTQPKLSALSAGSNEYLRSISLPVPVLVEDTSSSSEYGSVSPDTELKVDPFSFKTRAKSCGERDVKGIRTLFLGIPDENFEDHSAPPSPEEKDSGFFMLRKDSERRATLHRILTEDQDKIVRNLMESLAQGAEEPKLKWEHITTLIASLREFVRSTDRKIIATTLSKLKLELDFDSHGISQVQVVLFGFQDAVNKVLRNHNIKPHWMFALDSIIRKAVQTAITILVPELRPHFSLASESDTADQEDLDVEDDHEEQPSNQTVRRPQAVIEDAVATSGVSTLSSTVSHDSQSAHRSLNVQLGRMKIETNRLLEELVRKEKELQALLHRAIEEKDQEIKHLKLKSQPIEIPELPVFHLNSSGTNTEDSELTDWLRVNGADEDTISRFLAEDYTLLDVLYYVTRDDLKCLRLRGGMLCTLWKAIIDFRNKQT

SMILES	IC50 [µM]
Cc1cc(F)c(C(=O)Nc2ccnc(-c3nnn[nH]3)n2)cc1-n1cnc(C2CC2)c1 [Example 36a]	> 1
Cc1cc(F)c(C(=O)Nc2cccc(-n3cnnc3C(C)C)n2)cc1-n1cnc(C2CC2)c1 [Example 1c, 5-(4-cyclopropyl-1H-imidazol-1-yl)-2-fluoro-N-(6-(3-isopropyl-4H-1,2,4-triazol-4-yl)pyridin-2-yl)-4-methylbenzamide]	> 1
Cc1cc(F)c(C(=O)Nc2cccc(-c3nnnn3C(C)C(=O)O)n2)cc1-n1cnc(C2CC2)c1 (centres unmarked) [Example 19a]	0.1 to 1

Results, then the compound that gave them:

IC50 [µM]	SMILES
0.1 to 1	CC(=O)OC[C@@H](C)n1nnnc1-c1cccc(NC(=O)c2cc(-n3cnc(C4CC4)c3)c(C)cc2F)n1 [Example 6a, (R)-2-(5-(6-(5-(4-cyclopropyl-1H-imidazol-1-yl)-2-fluoro-4-methyl-benzamido)pyridin-2-yl)-1H-tetrazol-1-yl)propyl acetate]
0.1 to 1	Cc1cc(F)c(C(=O)Nc2cccc(-n3nnnc3C(C)C)n2)cc1-n1cnc(C(F)(F)F)c1 [Example 2b]
